From PubChem BioAssay (NCI)
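Assay format: 96-well plates, 48-hour exposure. The concentration for full growth arrest is given as TGI.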

Experiments:
Experiment in all cases: inhibition of tumour cell growth, NCI panel, 48 h
HCC-2998 colon = test system: HCC-2998 colon
T-47D breast = test system: T-47D breast
UO-31 renal = test system: UO-31 renal
MCF7 breast = test system: MCF7 breast
A498 renal = test system: A498 renal
NCI/ADR-RES ovarian = test system: NCI/ADR-RES ovarian
SR leukemia = test system: SR leukemia
OVCAR-8 ovarian = test system: OVCAR-8 ovarian
LOX IMVI melanoma = test system: LOX IMVI melanoma
OVCAR-3 ovarian = test system: OVCAR-3 ovarian
HOP-92 NSCLC = test system: HOP-92 NSCLC
SK-OV-3 ovarian = test system: SK-OV-3 ovarian
EKVX NSCLC = test system: EKVX NSCLC
COLO 205 colon = test system: COLO 205 colon
HCT-15 colon = test system: HCT-15 colon
A549 NSCLC = test system: A549 NSCLC
NCI-H460 lung = test system: NCI-H460 lung
IGROV1 ovarian = test system: IGROV1 ovarian
SNB-19 CNS = test system: SNB-19 CNS
MALME-3M melanoma = test system: MALME-3M melanoma
BT-549 breast = test system: BT-549 breast
CAKI-1 renal = test system: CAKI-1 renal
RXF 393 renal = test system: RXF 393 renal
HL-60(TB) leukemia = test system: HL-60(TB) leukemia
SF-295 CNS = test system: SF-295 CNS
OVCAR-5 ovarian = test system: OVCAR-5 ovarian
HS 578T breast = test system: HS 578T breast
KM12 colon = test system: KM12 colon
UACC-62 melanoma = test system: UACC-62 melanoma
CCRF-CEM leukemia = test system: CCRF-CEM leukemia
M14 melanoma = test system: M14 melanoma
NCI-H23 lung = test system: NCI-H23 lung
SF-539 CNS = test system: SF-539 CNS
HOP-62 NSCLC = test system: HOP-62 NSCLC
786-0 renal = test system: 786-0 renal
OVCAR-4 ovarian = test system: OVCAR-4 ovarian
SF-268 CNS = test system: SF-268 CNS
SN12C renal = test system: SN12C renal
MDA-MB-435 = test system: MDA-MB-435
NCI-H226 lung = test system: NCI-H226 lung
DU-145 prostate = test system: DU-145 prostate
MDA-MB-231 breast = test system: MDA-MB-231 breast
SW-620 colon = test system: SW-620 colon
U251 CNS = test system: U251 CNS
HT29 colon = test system: HT29 colon
UACC-257 melanoma = test system: UACC-257 melanoma
HCT-116 colon = test system: HCT-116 colon
SK-MEL-2 melanoma = test system: SK-MEL-2 melanoma
RPMI-8226 leukemia = test system: RPMI-8226 leukemia
SK-MEL-28 melanoma = test system: SK-MEL-28 melanoma
SK-MEL-5 melanoma = test system: SK-MEL-5 melanoma
MOLT-4 leukemia = test system: MOLT-4 leukemia

Measured: TGI

O=C(Nc1ccc(Cl)cc1)c1cc(S(=O)(=O)Nc2n[nH]c(=O)n2-c2ccccc2)c(S)cc1Cl
> 100 µM: all assays above
